According to patent US10875898B2, “Bioactive protein, use thereof and method for its production” (Koppert B.V., priority 2014, dated 2020):

Assays:
cucumber [1] = test: combined application of HYTLO1 and Trichoderma spp. strains on cucumber growth promotion; assay type: in vivo; conditions: 20 days after seed coating
Experimental: The results are shown in Table 2 and expressed in terms of increased stem and root length or fresh/dry weight. Cucumber seeds were coated with the purified molecule solutions and/or spore suspension, transferred into Petri dishes and left to germinate on humid filter paper. Germinated seedlings were transplanted into pots containing sterilised soil. Other two treatments with the purified molecules were performed at 7 days interval, by drenching the soil with the solutions at the final concentrations of 10^−8M for HYTLO1, and 1 ml of a 10^7 spore/ml suspension per 10 ml soil. In two-compounds application, half dose of each molecule was used. Each treatments was performer on at least 8 plants, and results were collected 20 days after seed coating. This experiment confirmed the beneficial effect exerted by HYTLO1 alone and in combination with Trichoderma species on plant growth. […] In particular, and only as an example, combined treatment with T. harzianum T22+HYTLO1, and T. harzianum strain TH1+HYTLO1 determined a significant increase in plant growth promotion effect of up to 33% more compared to controls (synergistic results as by the Limpel's formula are underlined in the Table).

cucumber [2] = test: combined application of HYTLO1, HA and 6PP on cucumber seed germination and growth promotion; assay type: in vivo; parameters: Root length, increase % vs. Control / Plant fresh weight, increase % vs. Control / Plant dry weight, increase % vs. Control / plant height, increase % vs. Control: concentration or dose not given beside the values
Experimental: Tested metabolites include 6PP and Harzianic Acid, and experiments were performed on seed germination, stem or root elongation as well fresh/dry weight. The results shown in Table 1 were obtained by using cucumber seeds coated with the solutions of the tested compounds, that were then transferred in Petri dishes and left to germinate on filter humid paper. First seed germination was evaluated, then the germinated seedlings were transplanted into pots containing sterilised soil. Other two treatments with the purified molecules were performed at 10 days interval, by drenching the soil with the solutions at the final concentrations of 10^−7M for 6PP and HA, and 10^−8M for HYTLO1. In two-compounds application, half dose of each molecule was used. In three-compound applications, one third of the dose of each molecules was used. Each treatments consisted of 8 plants. Results were collected 30 days after seed coating. Control was produced by adding water instead of the molecule solutions. The effect of the minimal amounts of solvents eventually contained in HA and 6PP solution was preliminary tested, with no differences observed in comparison to water control. The results shown in Table 1 that all of the three tested molecules have a significant beneficial effect on seed germination and plant growth, and that they can be synergistically combined for enhanced effectiveness.

HYTLO1: about 7 KDa Type II hydrophobin protein from Trichoderma longibrachiatum strain MK1, 71 aa, SEQ ID NO: 1
plant height (cm), percentage increase compared to water control (cucumber [1]; 10^−8M HYTLO1, 10^7 spore/ml, half dose in combinations, SD +− 1.5): 1.8% | Root length (cm), percentage increase compared to water control (cucumber [1]; SD +− 2.0): 8.5% | Plant fresh weight (g), percentage increase compared to water control (cucumber [1]; SD +− 2.8): 4.2% | Plant dry weight (g), percentage increase compared to water control (cucumber [1]; SD +− 3.1): 7.3% | Plant dry weight (cucumber [2]; 30 days after seed coating, SD +− 1.3 g): 8.4 g | Root length (cm) (cucumber [2]; 30 days after seed coating, SD +− 2.1 cm): 14.6 cm | Plant fresh weight (cucumber [2]; 30 days after seed coating, SD +− 2.5 g): 24.76 g | plant height (cm) (cucumber [2]; 30 days after seed coating, drench 10^−7M 6PP and HA, 10^−8M HYTLO1, half or one third dose in combinations, SD +− 2.5 cm): 24.9 cm | Seed germination (24 h) (cucumber [2]; coated cucumber seeds on humid filter paper, SD +− 9%): 78% | Seed germination (24 h), increase % vs. Control (cucumber [2]; vs water control): +30% | Plant dry weight, increase % vs. Control (cucumber [2]; vs water control, 30 days): 51.2% | Plant fresh weight, increase % vs. Control (cucumber [2]; vs water control, 30 days): 34.1% | Root length, increase % vs. Control (cucumber [2]; vs water control, 30 days): 17.1%
